Results from patent publication US9373800B2, “Organic light emitting element having lithium—boron complex” (CANON KABUSHIKI KAISHA, priority 2014, dated 2016).

Assay: Evaluation of stability to water (100 nm deposited film, water dropped, thickness step height meter)
Type: physicochemical
Conditions: for State of the film after water was dropped, After 1 min / State of the film after water was dropped, After 10 min: 100 nm film deposited on glass substrate, water dropped onto film, Alpha-Step; for State of the film after water was dropped, After 1 min: after 1 minute; for Dissolution of the film in water (text summary of Table 1): film soaked in water
Experimental: Water was dropped onto the films, and the states of the films were examined after 1 minute and 10 minutes with a thickness step height meter (Alpha-Step).

| SMILES | State of the film after water was dropped, After 1 min | State of the film after water was dropped, After 10 min | Dissolution of the film in water (text summary of Table 1) |
| --- | --- | --- | --- |
| [F-].[Li+] [Comparative compound 1, lithium fluoride] | Dissolved | Dissolved | dissolved immediately |
| [Cs+].[F-] [Comparative compound 2, cesium fluoride] | Dissolved | Dissolved | dissolved immediately |
| [Li+].c1cnn([B-](n2cccn2)(n2cccn2)n2cccn2)c1 [Comparative compound 3] | Partially dissolved | Dissolved | gradually dissolved |
